Test results reported in the supplement of paper PMC11061612.

Tests used:
Assay in all cases: combination Emax (second highest fraction inhibited in the dose matrix, 72 h); higher = more inhibition; extreme values may be limits of the assay
[1] = system: SJRH30 (Rhabdomyosarcoma)
Outline: (§1)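 After 24 hours at 37°C and 5% CO2 in 1536-well plates, cells in DMEM/F12 or RPMI plus 10% FBS received two-drug dose matrices for 72 hours. Viability came from CellTiter-Glo 2.0 luminescence and was scaled as inhibition, anchored at 0 by vehicle wells and at 1 by blank wells. Combination Emax is taken as the second-highest inhibition in the matrix, and Bliss excess as the observed combination effect less EA + EB − EA·EB, with EA and EB the single-agent effects.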

[2] = system: KYSE-70 (Esophageal Squamous Cell Carcinoma)
Outline: as §1

[3] = system: SNU-175 (Colorectal Carcinoma)
Outline: as §1

[4] = system: Calu-6 (Non-Small Cell Lung Carcinoma)
Outline: as §1

[5] = system: Becker (Low Grade Glioma)
Outline: as §1

[6] = system: JHH-1 (Hepatocellular Carcinoma)
Outline: as §1

[7] = system: NCI-H1563 (Lung Adenocarcinoma)
Outline: as §1

786-0 (Kidney Carcinoma) = system: 786-0 (Kidney Carcinoma)
Outline: as §1

[8] = system: EB-3 (Burkitt's Lymphoma)
Outline: as §1

[9] = system: PANC-02-03 (Pancreatic Carcinoma)
Outline: as §1

[10] = system: RPMI-8866 (Chronic Myelogenous Leukemia)
Outline: as §1

[11] = system: NCI-H810 (Non-Small Cell Lung Carcinoma)
Outline: as §1

[12] = system: BALL-1 (B-Lymphoblastic Leukemia)
Outline: as §1

[13] = system: AN3-CA (Endometrial Carcinoma)
Outline: as §1

[14] = system: LOUCY (T-Lymphoblastic Leukemia)
Outline: as §1

[15] = system: HTC-C3 (Thyroid Gland Carcinoma)
Outline: as §1

[16] = system: LAMA-84 (Chronic Myelogenous Leukemia)
Outline: as §1

[17] = system: RMG-I (Ovarian Carcinoma)
Outline: as §1

[18] = system: RERF-LC-KJ (Lung Adenocarcinoma)
Outline: as §1

| SMILES | combination Emax [1] | combination Emax [2] | combination Emax [3] | combination Emax [4] | combination Emax [5] | combination Emax [6] | combination Emax [7] | combination Emax (786-0 (Kidney Carcinoma)) | combination Emax [8] | combination Emax [9] | combination Emax [10] | combination Emax [11] | combination Emax [12] | combination Emax [13] | combination Emax [14] | combination Emax [15] | combination Emax [16] | combination Emax [17] | combination Emax [18] |
| --- | --- | --- | --- | --- | --- | --- | --- | --- | --- | --- | --- | --- | --- | --- | --- | --- | --- | --- | --- |
| CN(C)CCCOc1ccc(-c2ccc3ncc4c(c3c2)n(C2CCOCC2)c(=O)n4C)cn1 [AZD0156] + O=C(c1cc(Cc2n[nH]c(=O)c3ccccc23)ccc1F)N1CCN(C(=O)C2CC2)CC1 [Olaparib] (first compound max 3 µM, partner max 3 µM) | 0.48 | 0.123 | 0.553 | 0.36 | 0.247 | 0.196 | 0.246 | 0.223 | 0.568 | 0.248 | 0.285 | 0.306 | 0.79 | 0.352 | 0.368 | 0.142 | 0.472 | 0.29 | 0.368 |
| COc1nnc2ccc(N3CCC(c4ccc(OCCN5CCN(C)C(=O)[C@H]5C)cc4)CC3)nn12 [AZD5153] + CN(CC[C@H](CSC1=CC=CC=C1)NC2=C(C=C(C=C2)S(=O)(=O)NC(=O)C3=CC=C(C=C3)N4CCC(CC4)[C@H](C5=CC=CC=C5C6=CC=C(C=C6)Cl)O)S(=O)(=O)C(F)(F)F)CCO [AZD4320] (first compound max 1 µM, 7x7, partner max 1 µM) | 0.706 | – | 0.759 | 0.574 | – | 0.777 | 0.536 | 0.557 | – | – | 0.87 | – | 1 | 0.255 | – | 0.968 | – | – | 0.979 |
| COc1nnc2ccc(N3CCC(c4ccc(OCCN5CCN(C)C(=O)[C@H]5C)cc4)CC3)nn12 [AZD5153] + Cn1cnc2c(F)c(Nc3ccc(Br)cc3Cl)c(C(=O)NOCCO)cc21 [Selumetinib] (first compound max 1 µM, 7x7, partner max 10 µM) | 0.486 | 0.424 | 0.742 | 0.854 | 0.388 | 0.693 | 0.465 | 0.577 | 0.706 | 0.866 | 0.805 | 0.587 | 0.859 | 0.268 | 0.729 | 0.804 | 1 | 0.571 | 0.868 |
| COc1nnc2ccc(N3CCC(c4ccc(OCCN5CCN(C)C(=O)[C@H]5C)cc4)CC3)nn12 [AZD5153] + CCN(CCO)CCCOc1ccc2c(Nc3cc(CC(=O)Nc4cccc(F)c4)[nH]n3)ncnc2c1 [AZD2811] (first compound max 1 µM, 7x7, partner max 1 µM) | 0.799 | 0.458 | 0.83 | 0.301 | 0.423 | 0.446 | 0.488 | 0.552 | 0.757 | 0.592 | 0.872 | 0.694 | 0.948 | 0.297 | 0.97 | 0.818 | 0.892 | 0.546 | 0.971 |
| Cn1cnc2c(F)c(Nc3ccc(Br)cc3Cl)c(C(=O)NOCCO)cc21 [Selumetinib] + C[C@@H]1COCCN1C2=NC(=NC(=C2)C3(CC3)[S@](=N)(=O)C)C4=C5C=CNC5=NC=C4 [AZD6738] (first compound max 10 µM, 7x7, partner max 10 µM) | 0.821 | 0.243 | 0.718 | 0.817 | 0.427 | 0.436 | 0.313 | 0.606 | 0.589 | 0.566 | 0.943 | 0.414 | 1 | 0.464 | 0.966 | 0.75 | 0.992 | 0.354 | 0.312 |
| CC(=O)c1c(C)c2cnc(Nc3ccc(N4CCNCC4)cn3)nc2n(C2CCCC2)c1=O [Palbociclib] + Cn1cnc2c(F)c(Nc3ccc(Br)cc3Cl)c(C(=O)NOCCO)cc21 [Selumetinib] (first compound max 10 µM, 7x7, partner max 10 µM) | 0.143 | 0.182 | 0.549 | 0.707 | 0.368 | 0.201 | 0.261 | 0.357 | 0.374 | 0.475 | 0.806 | 0.0848 | 0.458 | 0.296 | 0.278 | 0.728 | 0.945 | 0.353 | 0.197 |
| CC(=O)c1c(C)c2cnc(Nc3ccc(N4CCNCC4)cn3)nc2n(C2CCCC2)c1=O [Palbociclib] + CN(CC[C@H](CSC1=CC=CC=C1)NC2=C(C=C(C=C2)S(=O)(=O)NC(=O)C3=CC=C(C=C3)N4CCC(CC4)[C@H](C5=CC=CC=C5C6=CC=C(C=C6)Cl)O)S(=O)(=O)C(F)(F)F)CCO [AZD4320] (first compound max 10 µM, 7x7, partner max 1 µM) | 0.37 | – | 0.877 | 0.623 | – | 0.519 | 0.348 | 0.534 | – | – | 0.927 | – | 1 | 0.709 | – | 0.515 | – | – | 0.141 |
| NC1(C(=O)N[C@@H](CCO)c2ccc(Cl)cc2)CCN(c2ncnc3[nH]ccc23)CC1 [Capivasertib] + CC(C)n1c(=O)n(C)c2cnc3cc(F)c(-c4ccc(OCCCN5CCCCC5)nc4)cc3c21 [AZD1390] (first compound max 10 µM, 7x7, partner max 0.3 µM) | 0.701 | 0.259 | 0.269 | 0.222 | 0.522 | 0.169 | 0.452 | 0.489 | 0.522 | 0.192 | 0.402 | 0.166 | 0.576 | 0.756 | 0.623 | 0.308 | 0.328 | 0.292 | 0.449 |
| Cn1cnc2c(F)c(Nc3ccc(Br)cc3Cl)c(C(=O)NOCCO)cc21 [Selumetinib] + CC(C)n1c(=O)n(C)c2cnc3cc(F)c(-c4ccc(OCCCN5CCCCC5)nc4)cc3c21 [AZD1390] (first compound max 10 µM, 7x7, partner max 0.3 µM) | 0.0759 | 0.168 | 0.27 | 0.672 | 0.235 | 0.252 | 0.161 | 0.159 | 0.215 | 0.414 | 0.193 | 0.304 | 0.24 | 0.0572 | 0.35 | 0.591 | 0.926 | 0.362 | 0.2 |
| COc1nnc2ccc(N3CCC(c4ccc(OCCN5CCN(C)C(=O)[C@H]5C)cc4)CC3)nn12 [AZD5153] + CC1(C)CCC(CN2CCN(c3ccc(C(=O)NS(=O)(=O)c4ccc(NCC5CCOCC5)c([N+](=O)[O-])c4)c(Oc4cnc5[nH]ccc5c4)c3)CC2)=C(c2ccc(Cl)cc2)C1 [Venetoclax] (first compound max 1 µM, 7x7, partner max 1 µM) | 0.383 | 0.409 | 0.665 | 0.157 | 0.334 | 0.391 | 0.491 | 0.503 | 0.806 | 0.582 | 0.814 | 0.583 | 1 | 0.2 | 1 | 0.763 | 0.82 | 0.599 | 0.971 |
| NC1(C(=O)N[C@@H](CCO)c2ccc(Cl)cc2)CCN(c2ncnc3[nH]ccc23)CC1 [Capivasertib] + COc1nnc2ccc(N3CCC(c4ccc(OCCN5CCN(C)C(=O)[C@H]5C)cc4)CC3)nn12 [AZD5153] (first compound max 10 µM, 7x7, partner max 1 µM) | 0.876 | 0.358 | 0.649 | 0.461 | 0.593 | 0.378 | 0.76 | 0.733 | 0.752 | 0.602 | 0.839 | 0.582 | 0.973 | 0.75 | 0.998 | 0.791 | 0.907 | 0.456 | 0.877 |
| C[C@@H](c1ccc2nccn2c1)n1nnc2ncc(-c3cnn(C)c3)nc21 [Savolitinib] + CC1(C)CCC(CN2CCN(c3ccc(C(=O)NS(=O)(=O)c4ccc(NCC5CCOCC5)c([N+](=O)[O-])c4)c(Oc4cnc5[nH]ccc5c4)c3)CC2)=C(c2ccc(Cl)cc2)C1 [Venetoclax] (first compound max 1 µM, 7x7, partner max 1 µM) | 0.126 | 0.095 | 0.119 | 0.194 | 0.344 | 0.114 | 0.18 | 0.159 | 0.253 | 0.157 | 0.0738 | 0.194 | 1 | 0.0904 | 0.976 | 0.127 | 0.172 | 0.208 | 0.15 |
| C[C@@H](c1ccc2nccn2c1)n1nnc2ncc(-c3cnn(C)c3)nc21 [Savolitinib] + CN(CC[C@H](CSC1=CC=CC=C1)NC2=C(C=C(C=C2)S(=O)(=O)NC(=O)C3=CC=C(C=C3)N4CCC(CC4)[C@H](C5=CC=CC=C5C6=CC=C(C=C6)Cl)O)S(=O)(=O)C(F)(F)F)CCO [AZD4320] (first compound max 1 µM, 7x7, partner max 1 µM) | 0.265 | – | 0.349 | 0.414 | – | 0.356 | 0.213 | 0.149 | – | – | 0.366 | – | 1 | 0.217 | – | 0.282 | – | – | 0.206 |
